From patent US20230339854A1, “Negative Allosteric Modulation of GluN3-Containing N-Methyl-D-Aspartate Receptors” (Emory University, priority 2020, published 2023)
Converted amounts (≈) assume the structure as drawn. “Also recorded” adds a separate entry of the source. Where two headings read alike, the source gives them in different places.

How the values were obtained:
[1] = test system: GluN1/GluN2 NMDA receptors; assay: Whole-cell patch-clamp of NMDA-activated responses in hippocampal CA1 pyramidal cells, acute brain slices; type: cell-based, mouse; details: 30 μM; 0.5 mM NMDA
GluN1/GluN3A channels = GluN1/GluN3A channels (Mus musculus, UniProt A2AIR5); assay: Nonstationary variance analysis of neuronal glycine-evoked current responses; type: cell-based; details: 30 μM; VHOLD −60 mV
Description: Nonstationary variance analysis (Perszyk, et al., Nat. Chem. Biol., 2020, 16(2), 188-196) was conducted on the deactivation phase of the neuronal glycine-evoked current responses bathed in vehicle (control) or 30 μM EU1180-438 (VHOLD: −60 mV). […] The current was divided into 50 equally spaced segments, and the mean current amplitude of each segment was determined. The current was high pass filtered with a cutoff of 1 Hz, and the current variance was determined for 50 segments. The plot of variance vs. current for each response was fitted by the equation:
Variance=iI−I^2/N • where I is the current amplitude of macroscopic response, i is the weighted mean unitary current, and N is the channel numbers. Virtually identical results were found if the current-variance relationship for all 10 responses for each cell were averaged and then fitted by the foregoing equation. Chord conductance y was determined assuming 0 mV for the reversal potential.
Some allosteric modulators with molecular determinants in the pre-M1 can reduce single channel conductance for glutamate receptors (Perszyk, et al., Nat. Chem. Biol., 2020, 16(2), 188-196; Yuan, et al., ACS Med. Chem. Lett., 2019, 10 (3), 237-242). […]

[2] = test system: GluN1/GluN2 NMDA receptors (GluN2A, GluN2B, GluN2C, GluN2D); assay: Recombinant GluN1/GluN2 NMDA receptors in Xenopus oocytes (selectivity); type: cell-based, rat
[3] = molecular target: T1, human GluN1^FA,TL/GluN3A receptors (Homo sapiens, UniProt Q8TCU5); assay: Two-electrode voltage-clamp recordings of GluN1^FA,TL/GluN3A receptors in Xenopus oocytes; type: cell-based; details: for % Inhibition GluN1^FATL/GluN3A: fitted maximum at saturating test compound
T1 construct: Human GluN3A (NP_597702.2) and rat GluN3B (NP_579842.2) were synthesized and subcloned into SP6 plasmids; expressed in transfected cells; host or cells: Xenopus laevis oocytes, cRNA injection (GluN1:GluN3 1:3)
In short: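 Human GluN1 with human GluN3A cRNA (1:3) in oocytes, recorded 2-5 days post-injection at 23° C, holding −40 mV, in Ba2+-containing recording solution pH 7.4. Compounds screened at 10 or 30 μM; those inhibiting >20% given concentration-response fits for IC50, Hill slope and residual inhibition.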

[4] = Maximum solubility by nephelometry; type: physicochemical; details: aqueous buffer, kinetic from dmso stock; oocyte recording buffer (pH 7.4)
Description: The maximum solubility for the synthesized compounds was determined using a BMG Labtech Nephelostar™ nephelometer according to the manufacturer's instructions. For example, EU1180-438 was taken up in DMSO to prepare a 10 mM stock solution. The 10 mM solution was serially diluted into eleven concentrations (10, 5, 2.5, 1.25, 0.625, 0.3125, 0.1563, 0.0781, 0.0391, 0.0193, and 0.0098 mM) at the top of a clear-bottom 96-well plate. These were then each distributed into the subsequent 7 wells in 2.5 μL increments and diluted 100-fold (2.5 μL to 250 μL) with oocyte recording buffer (pH 7.4) into concentrations of 100, 50, 25, 12.5, 6.25, 3.125, 1.563, 0.781 0.391, 0.193, and 0.098 μM. The 96-well plate was shaken gently for 90 minutes before analysis.

T1 sequence (Q8TCU5 24-1115, other chains not shown): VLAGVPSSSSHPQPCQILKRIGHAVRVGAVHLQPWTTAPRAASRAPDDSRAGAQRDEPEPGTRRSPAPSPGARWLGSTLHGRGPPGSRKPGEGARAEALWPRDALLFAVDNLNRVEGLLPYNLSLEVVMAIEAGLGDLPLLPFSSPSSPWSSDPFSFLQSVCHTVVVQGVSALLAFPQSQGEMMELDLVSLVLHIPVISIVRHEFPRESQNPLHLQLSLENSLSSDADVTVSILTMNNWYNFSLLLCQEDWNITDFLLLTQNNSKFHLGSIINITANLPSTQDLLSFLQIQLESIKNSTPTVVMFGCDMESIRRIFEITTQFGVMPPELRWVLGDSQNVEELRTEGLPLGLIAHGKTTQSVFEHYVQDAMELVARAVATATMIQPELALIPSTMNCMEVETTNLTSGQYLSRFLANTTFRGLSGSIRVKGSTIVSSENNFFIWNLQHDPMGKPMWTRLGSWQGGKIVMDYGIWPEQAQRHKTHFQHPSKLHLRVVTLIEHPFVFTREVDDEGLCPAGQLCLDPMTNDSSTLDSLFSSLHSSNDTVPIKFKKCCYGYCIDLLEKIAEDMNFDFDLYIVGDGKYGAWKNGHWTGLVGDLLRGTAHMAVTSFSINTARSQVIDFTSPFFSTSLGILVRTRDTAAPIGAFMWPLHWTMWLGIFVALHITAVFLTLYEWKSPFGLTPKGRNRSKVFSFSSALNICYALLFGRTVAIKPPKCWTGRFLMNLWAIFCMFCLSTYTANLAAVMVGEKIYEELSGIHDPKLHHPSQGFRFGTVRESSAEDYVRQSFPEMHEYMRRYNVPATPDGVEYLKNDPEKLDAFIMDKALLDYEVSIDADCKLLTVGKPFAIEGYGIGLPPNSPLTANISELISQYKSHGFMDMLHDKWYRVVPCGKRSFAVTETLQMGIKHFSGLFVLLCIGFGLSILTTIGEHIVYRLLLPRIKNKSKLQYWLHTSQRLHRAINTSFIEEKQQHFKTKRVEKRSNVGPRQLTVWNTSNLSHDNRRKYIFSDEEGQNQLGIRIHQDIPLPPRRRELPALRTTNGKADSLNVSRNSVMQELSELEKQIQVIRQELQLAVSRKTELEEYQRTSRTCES
Sequence of GluN1/GluN3A channels (A2AIR5 27-1135, other chains not shown): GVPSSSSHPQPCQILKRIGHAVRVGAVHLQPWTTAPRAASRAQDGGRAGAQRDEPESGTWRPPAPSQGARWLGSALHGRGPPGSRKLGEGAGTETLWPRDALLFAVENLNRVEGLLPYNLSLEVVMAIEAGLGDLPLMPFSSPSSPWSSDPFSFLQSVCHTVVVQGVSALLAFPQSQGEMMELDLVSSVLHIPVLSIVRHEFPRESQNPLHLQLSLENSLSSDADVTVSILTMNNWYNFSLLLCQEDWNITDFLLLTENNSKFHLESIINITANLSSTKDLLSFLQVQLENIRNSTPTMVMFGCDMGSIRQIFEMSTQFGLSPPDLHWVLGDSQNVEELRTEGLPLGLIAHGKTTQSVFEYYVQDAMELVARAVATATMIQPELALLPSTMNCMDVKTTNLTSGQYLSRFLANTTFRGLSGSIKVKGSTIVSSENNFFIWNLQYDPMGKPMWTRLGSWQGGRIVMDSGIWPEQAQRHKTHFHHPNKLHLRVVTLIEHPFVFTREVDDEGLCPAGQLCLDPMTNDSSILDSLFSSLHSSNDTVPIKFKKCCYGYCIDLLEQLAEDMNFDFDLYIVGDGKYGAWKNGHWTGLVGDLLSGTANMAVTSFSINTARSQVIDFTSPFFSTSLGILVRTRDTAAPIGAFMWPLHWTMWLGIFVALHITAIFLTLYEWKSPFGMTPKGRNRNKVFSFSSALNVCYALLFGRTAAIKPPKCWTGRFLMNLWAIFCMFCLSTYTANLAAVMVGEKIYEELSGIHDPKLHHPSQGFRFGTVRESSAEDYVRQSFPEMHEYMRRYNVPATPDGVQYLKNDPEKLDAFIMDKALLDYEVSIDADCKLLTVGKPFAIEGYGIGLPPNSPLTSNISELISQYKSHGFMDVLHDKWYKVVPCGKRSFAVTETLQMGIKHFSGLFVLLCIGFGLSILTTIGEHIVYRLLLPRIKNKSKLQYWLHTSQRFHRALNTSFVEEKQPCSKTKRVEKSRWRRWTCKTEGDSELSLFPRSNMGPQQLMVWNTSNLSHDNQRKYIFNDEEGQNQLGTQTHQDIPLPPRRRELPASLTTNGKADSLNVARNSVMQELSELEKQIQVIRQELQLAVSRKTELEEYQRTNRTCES

average chord conductance of GluN1/GluN3A channels (GluN1/GluN3A channels): 6.3±0.90 pS
activity toward recombinant GluN1/GluN2 NMDA receptors (GluN2A-D) [2]: no detectable activity
activity at GluN1/GluN2 NMDA receptors ([2]; 20 μM, rat GluN1-1a/GluN2A-D): virtually no activity
Slope ([3]; concentration-response curve, 1000 μM glycine): 1.24
% Inhibition GluN1^FATL/GluN3A ([3]; pH 6.8): 72%^a, (n = 7)
% Inhibition GluN1^FATL/GluN3A ([3]; pH 7.4): 82%, (n = 18)
maximal inhibition at saturating concentrations ([3]; pH 6.8): 72%
IC50 ([3]; pH 6.8, holding potential −40 mV, read-out: EC50, (95% CI) GluN1^FATL/GluN3A): 4.2 µM
IC50 ([3]; pH 6.8, read-out: IC50): 4.2 µM
inhibition at a saturating concentration ([3]; pH 7.4): 82%
IC50 ([3]; pH 7.4, holding potential −40 mV, read-out: EC50, (95% CI) GluN1^FATL/GluN3A): 3.5 µM
remaining activity at 10 µM ([3]; read-out: response in the presence of compound, % of control): 29 ± 4.2%
minimum ([3]; residual response at saturating concentration, 1000 μM glycine): 18%
IC50 ([3]; responses activated by 1000 μM glycine, pH 7.4, read-out: IC50): 3.5 µM
solubility at 90 min [4]: 37 µM (≈ 14.4 µg/mL)
Compound: COc1ccc(OCC(c2ccc(OC)cc2)N2Cc3ccccc3C2=O)cc1 (racemic) [EU1180-438, 2-(2-(4-methoxyphenoxy)-1-(4-methoxyphenyl)ethyl)isoindolin-1-one]
effect on NMDA-activated responses mediated by GluN1/GluN2 NMDA receptors [1]: not modulated; also recorded: did not affect
effect of increasing glycine concentration on inhibition [3]: not altered by increasing glycine concentration
voltage dependence of inhibition (current-voltage relationship) ([3]; 4 μM compound): no effect of holding voltage on EU1180-438 inhibition
